Experimental data published in the NIST ThermoML archive (doi:10.1016/j.jct.2019.01.007).
Several values for one entry are separate records, joined by “and”; a condition that tells them apart may be missing. Equal entries are not always repeated.

Conditions: Liquid

CCCCCCCCCCCC(=O)OC [methyl dodecanoate]
Transpiration method
Conditions	vapor or sublimation pressure [kPa]
323.8 K	0.00609
325.9 K	0.00701
327.9 K	0.00853
329.9 K	0.00982
331.8 K	0.0113
333.9 K	0.0134
335.7 K	0.0164
338.7 K	0.0198
340.7 K	0.0228
344.1 K	0.0291
345.9 K	0.0331
349.3 K	0.0413
351.3 K	0.047
354.4 K	0.0603
356.4 K	0.0682
359.6 K	0.0828
361.5 K	0.0952
364.7 K	0.11
366.7 K	0.132
370 K	0.16
371.8 K	0.178
374.7 K	0.214
378.6 K	0.263
381.7 K	0.314
386.8 K	0.412
389.6 K	0.491
391.9 K	0.534
394.9 K	0.635
397 K	0.694
399.2 K	0.774
401.3 K	0.898

CCCCCCCCCCCCCCCCC(=O)OC [methyl heptadecanoate]
Transpiration method
Conditions	vapor or sublimation pressure [kPa]
337.9 K	0.000259
339.75 K	0.000298
341.8 K	0.000371
342.85 K	0.000395
345.85 K	0.000532
347.95 K	0.000685
350 K	0.000803
354.3 K	0.00114
357.5 K	0.00144
360.6 K	0.00195
362.5 K	0.00206
365.25 K	0.00272
366.85 K	0.00301
369 K	0.00377
372.3 K	0.00464
376.2 K	0.0058
379.2 K	0.00772
382.25 K	0.0089
385.65 K	0.0111
387 K	0.0126
389.25 K	0.0152
391.3 K	0.0176
393.4 K	0.0186
396.2 K	0.0246
399.2 K	0.0302
402.35 K	0.0355
405.3 K	0.044
408.15 K	0.0523
412.2 K	0.0635

CCCCCCCCCCCCCCCC(=O)OC [methyl hexadecanoate]
Conditions	vapor or sublimation pressure
308.12 K	2.814e-05 kPa
312 K	4.574e-05 kPa
312.96 K	5.318e-05 kPa
312.97 K	4.817e-05 kPa
314.42 K	5.995e-05 kPa
315.4 K	6.903e-05 kPa
316.85 K	7.591e-05 kPa
317.81 K	8.232e-05 kPa
317.82 K	8.757e-05 kPa
319.27 K	0.0001 kPa
320.26 K	0.0001123 kPa
321.71 K	0.0001276 kPa
322.66 K	0.0001426 kPa
322.67 K	0.000144 kPa
324.12 K	0.0001655 kPa
325.11 K	0.0001853 kPa
326.56 K	0.0002146 kPa
327.52 K	0.0002379 kPa and 0.0002346 kPa
328.98 K	0.0002676 kPa
329.96 K	0.0002973 kPa
331.42 K	0.0003403 kPa
332.37 K	0.0003763 kPa and 0.000377 kPa
333.83 K	0.000429 kPa
334.83 K	0.0004701 kPa
336.28 K	0.0005477 kPa
337.23 K	0.0006044 kPa and 0.0005995 kPa
338.69 K	0.0006834 kPa
339.69 K	0.0007518 kPa
341.14 K	0.0008558 kPa
342.09 K	0.0009461 kPa and 0.0009339 kPa
343.55 K	0.00107 kPa
344.55 K	0.001176 kPa
345.01 K	0.001226 kPa
346 K	0.001334 kPa
346.95 K	0.001462 kPa and 0.001463 kPa
348.41 K	0.001655 kPa
349.41 K	0.001817 kPa
349.87 K	0.001888 kPa
350.86 K	0.002055 kPa
351.82 K	0.002257 kPa
353.27 K	0.002528 kPa
354.29 K	0.002774 kPa
354.73 K	0.002884 kPa
355.73 K	0.003112 kPa
356.67 K	0.003414 kPa
358.13 K	0.003814 kPa
359.16 K	0.004171 kPa
359.59 K	0.004332 kPa
359.63 K	0.004286 kPa
360.59 K	0.004673 kPa
361.55 K	0.005107 kPa
363 K	0.00565 kPa
364.02 K	0.006171 kPa
364.45 K	0.006382 kPa
364.49 K	0.006315 kPa
365.45 K	0.006842 kPa
366.41 K	0.00747 kPa
367.87 K	0.008233 kPa
368.87 K	0.008934 kPa
369.32 K	0.009208 kPa
371.29 K	0.01071 kPa
371.74 K	0.01102 kPa
372.64 K	0.01169 kPa
372.73 K	0.01183 kPa
375.03 K	0.0139 kPa
377.49 K	0.0166 kPa
379.9 K	0.01941 kPa
382.34 K	0.02319 kPa
384.76 K	0.02705 kPa
387.21 K	0.03214 kPa
389.66 K	0.03772 kPa
392.06 K	0.04434 kPa
394.52 K	0.05191 kPa
396.92 K	0.06045 kPa
399.39 K	0.07078 kPa
401.78 K	0.08154 kPa
404.23 K	0.09507 kPa
406.65 K	0.1092 kPa
409.09 K	0.1267 kPa
411.5 K	0.1469 kPa
411.52 K	0.1459 kPa
416.35 K	0.1929 kPa
421.21 K	0.2522 kPa
426.08 K	0.3266 kPa
428.52 K	0.37 kPa
430.94 K	0.4193 kPa
